Laboratory results as given in US12617757B2, “Compounds and modules for inhibition of pre-miR-21 and their use in treatment of certain cancers” (University of Florida Research Foundation, Incorporated, priority 2019, dated 2026).

Legend:
MDA-LM2 cells = test: Boyden chamber invasion assay, MDA-LM2; type: cell-based; details: LNA-21 100 nM, 2 1000 nM
Experimental: Boyden Chamber Invasion Assay. The MDA-MB-231, MDA-LM2, A375, A549, or MCF-10a cells (5×10^4) were seeded into Hanging Cell Culture Inserts for 24 well plates with uncoated membranes with 8.0 μm pores (Millicell) in serum free growth media. A 3 mg/mL layer (100 μL) of Matrigel (Fisher Scientific: CB40234) diluted with serum free growth media was prepared inside of each membrane. Cells were cultured as described above, with or without compound treatment, and allowed to invade towards complete growth media in the bottom well for 16-24 h before ending the experiment by removing the media in the bottom wells and inserts. The hanging cell culture inserts and bottom wells were washed twice with 1×PBS, gently shaking to mix. Excess liquid and cells inside the insert were removed with cotton swabs, after which 400 μL of 4% paraformaldehyde was placed into the bottom well and incubated for 20 min at room temperature to fix the cells. […] Four different fields of view from each captured image were counted for crystal violet stained or unstained cells. Normalized cells invaded was calculated with equation 5 (Eq 5): […]
where stained cells represent cells counted with crystal violet stain observed in the compound treated or vehicle treated samples, respectively.

pre-miR-21 [1] = test: In vitro RNase L cleavage of pre-miR-21 (FRET sensor, gel mapping); type: biochemical
Experimental: In Vitro Fluorescent RNA Cleavage. A model RNA hairpin^15 labeled with a 5′ 6-Fluorescein (6FAM) and 3′ Black Hole Quencher (IQ4) (5′ 6FAM-[…]-3′ IQ4; 5′ FAM/3′ BHQ model RNA) (SEQ ID NO: 3) or a miR-21 Hairpin Precursor RNA labeled with a 5′ 6-Fluorescein (6FAM) and 3′ Black Hole Quencher (IQ4) (5′ 6FAM-[…] […]-3′ IQ4; 5′ FAM/3′ BHQ miR-21 Hairpin Precursor RNA) (SEQ ID NO: 4) was purchased from Chemgenes with HPLC purification. Solutions of RNA (100 nM) were folded at 65° C. for 5 min and slowly cooled to room temperature in 1×RNase L Buffer (25 mM Tris-HCl, pH 7.4, 100 mM KCl) without MgCl2, β-mercaptoethanol or ATP. After folding, the RNA was supplemented with 10 mM MgCl2, fresh 7 mM β-mercaptoethanol, and 50 μM of ATP. Next, 100 nM of RNase L, prepared as described previously^22, and various concentrations of screening compounds were prepared in 1×RNase L Buffer and added to the RNA. […] The samples were incubated at room temperature for 60 min after which the fluorescence intensity (Ex: 485 nm, Em: 525 nm) was measured using a SpectraMax M5 plate reader or Biotek FLx800 plate reader. The percentage change in fluorescence intensity, where enhancement of fluorescence intensity was indicative of RNA cleavage, was determined by calculating the percentage change in sample fluorescent signals relative to the untreated fluorescent signal (Fi, %). […]

pre-miR-21 [2] = test: Measurement of catalytic activity in MDA-MB-231 cells; type: cell-based, human
Experimental: Measurement of Catalytic Activity. The MDA-MB-231 cells were plated into a 24-well plates (Corning). At ˜80% confluency, the media was aspirated and the cell monolayer was washed with 1×DPBS. Cells were then incubated with 5 (500 nM) or vehicle (DMSO) diluted in cell culture medium for 24 h. Cells were then lysed using 250 μL of RNA Lysis Buffer from a Quick-RNA MiniPrep Kit (Zymo Research). A 100 μL aliquot was transferred to black, non-binding surface, half area 96-well plates (Corning). Fractions of untreated cell lysate were combined and used to generate a standard curve of 5 in cell lysate, by spiking in known concentrations of 5. Fluorescence intensity (Ex: 345 nm, Em: 460 nm) was then measured on a Molecular Devices SpectraMax M5 plate reader to determine compound concentration in cell lysate. Using the generated standard curve, the concentration of 5 in the […] cell lysate aliquot was then used to extrapolate the amount of 5 in pmol in the full 250 μL volume.
RNA was extracted from the cell lysates, followed by RT-qPCR as described above. A standard curve was generated for the pre-miR-21 WT transcript using in vitro transcribed pre-miR-21 (10 ng, 1 ng, 0.1 ng, 0.01 ng, 0.001 ng, 0.0001 ng, 0 ng) completed with each run to accurately calibrate Ct values. The amount of cleaved pre-miR-21 was then calculated by taking the difference between the pmol of pre-miR-21 in untreated samples and the pmol of pre-miR-21 in 5-treated samples. Catalytic activity, or turnover, was calculated by taking the ratio of the pmol of cleaved pre-miR-21 and the pmol of 5 in the sample.

Row | Compound | effect on invasion (MDA-LM2 cells) | cleavage sites in labeled pre-miR-21 WT RNA (gel mapping) (pre-miR-21 [1]; 5 and RNase L treatment) | fluorescence cleavage of pre-miR-21 labeled FRET sensor (pre-miR-21 [1]; with RNase L) | Average pre-miR-21 (pre-miR-21 [2]; 500 nM, 24 h, MDA-MB-231, mean ± s.d. (n = 6)) | Cleaved pre-miR-21 (pre-miR-21 [2]; 500 nM, 24 h, difference untreated minus treated, mean ± s.d.) | Turnovers (pre-miR-21 [2]; 500 nM, 24 h, ratio Cleaved pre-miR-21 / 5 Detected, mean ± s.d.) | moles of pre-miR-21 cleaved by one mole of compound (pre-miR-21 [2]; MDA-MB-231)
1 | CCCN(CC(=O)N(CCC)CC(=O)N(CCC)CC(=O)N(CC(N)=O)Cc1cn(CCCNC(=O)CCCOc2ccc(-c3nc4cc(-c5ccc(N6CCN(C)CC6)cc5)ccc4[nH]3)cc2)nn1)C(=O)CNCc1cn(CCCNC(=O)CCCOc2ccc(-c3nc4cc(-c5ccc(N6CCN(C)CC6)cc5)ccc4[nH]3)cc2)nn1 [Compound 2] | decreased the invasive phenotype | – | – | – | – | – | –
2 | CCCN(CC(=O)N(CCC)CC(=O)N(CCC)CC(=O)N(CC(=O)NCCOCCOCCOCCOc1ccc(C=C2SC(Nc3ccccc3)=C(C(=O)OCC)C2=O)cc1O)Cc1cn(CCCNC(=O)CCCOc2ccc(-c3nc4cc(-c5ccc(N6CCN(C)CC6)cc5)ccc4[nH]3)cc2)nn1)C(=O)CN(Cc1cn(CCCNC(=O)CCCOc2ccc(-c3nc4cc(-c5ccc(N6CCN(C)CC6)cc5)ccc4[nH]3)cc2)nn1)C(C)=O [Compound 5] | – | Cleavage was observed at U27, G25, C23, and G21 | dose responsive increase in cleavage | 16 ± 3.8 pmol | 68 ± 6.7 pmol | 26 ± 2.5 | 26 mol
